Results on 18 molecules are retold here after patent publication US20260165976A1, “ANTI-EVAPORATIVE LIPID FORMULATIONS” (UNIVERSITY OF HELSINKI, priority 2022, published 2026).

Molecules are shown by their SMILES. Entries after “also recorded” stand apart in the source; their conditions may differ.

Holding throughout (type): physicochemical
Data set [1] can be described thus: Evaporation resistance / evaporation reduction of lipid films (modified Langmuir and Schaefer method). Conditions: for evaporation resistance of OAHFA films: individual lipid film on PBS subphase, 35±1° C., FIG. 2; for evaporation resistance of phospholipid films: FIG. 13C. The protocol: (§1) The lipid components and tailored mixtures dissolved in chloroform, or alternatively, the formulations undergoing characterization studies were spread onto the air-buffer interface of a Langmuir trough, either a Mini trough (KSV, Helsinki, Finland) or a Large trough (KSV NIMA, Biolin Scientific, Espoo, Finland), which was filled with PBS buffer. The samples were allowed to equilibrate for 3 min before starting the measurements. The surface pressure was measured using a Wilhelmy plate, the surface potential was measured using a KSV NIMA Surface Potential Sensor (Espoo, Finland) when relevant and Brewster angle microscopy (BAM) images were captured using a KSV NIMA microBAM (Espoo, Finland) instrument. The films were compressed at a constant rate of 5 or 10 mm/min and the subphase temperature was maintained at 35±1° C. The measurements were performed in an acrylic box under an ozone-free atmosphere to prevent undesired oxidation of the lipids. An ozone-free atmosphere was generated by passing dry air through ODS-3P ozone destruct unit (Ozone solutions, Hull, Iowa) and into the enclosure at a rate of 76 l/min.
The adaptive features of the formulations were uncovered through studying the spreading capabilities of the lipid films over compression-expansion cycles using the Langmuir setup. In more detail, the volume employed of each formulation was the volume required to observe a response in the surface pressure isotherm over one compression-expansion cycle. Altogether, the films were subjected to twenty compression-expansion cycles employing a 50 mm/min. compression/expansion rate and the changes in the surface pressure isotherms were monitored as described above. Evaporation resistance was determined by a modified Langmuir and Schaefer method (Langmuir et al, 1943, J Franklin Inst, 235, 119-162). The measurements were conducted by compressing the film to a specific mean molecular area, ranging between 2-40 Å^2/molecule (for individual compounds), or a specified area (for formulations) and placing a tailored desiccant cartridge, with a water-permeable membrane, approximately 2 mm above the aqueous surface. The commercial silica gel containing desiccant cartridges (SP Industries, Warminster, PA) were modified by replacing the membrane with a Millipore Immobilon-P PVDF membrane (450 nm pore size, Bedford, MA). The desiccant cartridge was fixed in position for 5 minutes and the mass of the absorbed water was determined by gravimetric techniques. In order to take into account the water absorbed from the air inside the enclosure, a second background measurement was conducted in parallel inside the enclosed acrylic box. From the measurements, the evaporation resistance was calculated with the equation (1).
The terms used in the equation are as follows: Adesicant=area of the desiccant cartridge; • t=measuring time; (w-w0)=water concentration difference between the aqueous surface and the surface of the desiccant cartridge; m(I)=water amount absorbed in the presence of the lipid film; mPBS(0)=water amount absorbed in the absence of the lipid film; Δmtot=mass of evaporated water during the measurement; ti=time point D=diffusion coefficient; ρ=water density; ATrough=area of the Langmuir Trough.
The evaporation reduction was determined as the total reduction of water absorbed by a desiccant cartridge when a lipid film was covering the subphase versus the situation when the lipid film was absent. Equation (2) was utilized in the calculations.

Data set [2] can be described thus: Surface pressure isotherms and Brewster angle microscopy of films on a Langmuir trough. The note with it: PBS subphase, 35±1° C. The protocol:
as §1

The nature of data set [3]: Differential scanning calorimetry (DSC) of active components, phospholipids and liposomal formulations. Conditions: heating 10° C./min, triplicate; for Peak Tm1 ± SD / Onset Tm2 ± SD / Peak Tm2 ± SD: in °C (unit assumed). The procedure:
Differential scanning calorimetry (DSC 2500 with an RCS90 cooling unit; TA instruments, Newcastle, DE, USA) was utilized to study the thermal properties of the active compounds. Nitrogen (N2) was utilized as the purge gas at rate of 50 mL/min during the measurements. […] of the active components were placed into aluminum pans with manually made pin holes (DSC Consumables incorporated, Austin, Minnesota, USA). The samples were subsequently sealed and analyzed with DSC utilizing the TRIOS® software (TA instruments, Newcastle, DE, USA). All results were compared to an empty reference pan containing a pin hole. Each measurement was performed in triplicate. Briefly, the samples were cooled to 0° C., then heated from 0° C. to 75° C. at a rate of 10° C./min. Then, the samples were kept isothermally at 75° C. for 10 min, after which they were equilibrated to −50° C. at an uncontrolled rate. Ultimately, the samples were heated again to 75° C. at a rate of 10° C./min.
The phospholipid bilayer phase transition behavior was studied to assess whether successful integration of the active components into the phospholipid bilayer had been achieved or not. The studies were performed in a similar fashion as described for active components above. In this case, 20 μL of a formulation was pipetted into the aluminum pans (DSC Consumables incorporated, Austin, Minnesota, USA), which were subsequently sealed and analyzed with DSC employing the TRIOS® software (TA instruments, Newcastle, DE, USA). The samples were cooled and equilibrated to 5° C., then heated from 5° C. to 70-85° C. at a rate of 10° C./min and the results were compared to the reference pan containing the liquid used to hydrate the lipid film. All prepared liposomal formulations which viscosity were low enough to be pipetted, were analyzed by DSC and compared to the thermograms obtained from liposomes containing only the PC-component and the thermograms obtained for the active components.
(Differential scanning calorimetry records heat flow against a reference as temperature is scanned.)

`CCCCCCCC/C=C\CCCCCCCC(=O)OCCCCCCC/C=C\CCCCCCCCCCC(=O)O` [20:1/18:1-OAHFA, (12Z)-20-(oleoyloxy)eicos-12-enoic acid]: in data set [1], the “evaporation resistance of OAHFA films” value is given as “significantly weaker evaporation-resistant properties”. Further, in data set [2], the “phase behaviour of the film (surface pressure isotherm, BAM)” value (“phase behaviour of the film” for short) was “does not undergo a phase transition” and the “surface activity / spreading ability” value is recorded as “surface active lipids”.
On to `CCCCCCCCCCCCCCCCCC(=O)OC[C@H](COP(=O)([O-])OCC[N+](C)(C)C)OC(=O)CCCCCCCCCCCCCCCCC` [DSPC, 1,2-distearoyl-sn-glycero-3-phosphocholine], for which, in data set [3], the “Onset Tm1 ± SD” value was 50.13 ± 0.29 and the “Peak Tm1 ± SD” value was 54.67 ± 0.18.
As to `CCCCCCCC/C=C\CCCCCCCCOC(=O)CCCCCCCCCCCCCCCCCCC(=O)O` [R-20:0/18:1-OAHFA, 20-(oleyloxy)-20-oxo-eicosanoic acid], the “evaporation resistance of OAHFA films” value in data set [1] was “reasonable degree of evaporation resistance”.
Regarding `CCCCCCCCCCCCCCCCCC(=O)OC[C@H](COP(=O)(O)OCCN)OC(=O)CCCCCCCCCCCCCCCCC` [18:0 PE, 1,2-distearoyl-sn-glycero-3-phosphoethanolamine], in data set [1], the “evaporation resistance of phospholipid films” value was “highest evaporation resistance”. Besides, in data set [2], the “phase behaviour of the film” value is on record as “suitable properties”.
As for `CCCCCCCCCCCCCCCCCCO` [1-Octadecanol, octadecanol], the “evaporation resistance of long chain fatty alcohols” value in data set [1] (FIG. 5) is given as “most promising species”. Further, in data set [3], the “Onset Tm1 ± SD” value was 56.49 ± 0.49 and the “Peak Tm1 ± SD” value came to 57.61 ± 0.22.
Regarding `CCCCCCCC/C=C\CCCCCCCC(=O)OCCCCCCCCCCCCCCCCCCCCCC` [BO, behenyl oleate], in data set [3], the “Onset Tm1 ± SD” value was determined as 34.48 ± 0.05 and the “Peak Tm1 ± SD” value worked out at 36.74 ± 0.92.
Consider `CCCCCCCC/C=C\CCCCCCCC(=O)OCCCCCCC/C=C\CCCCCCCCCCCCCCCCCCCC(=O)O` [29:1/18:1-OAHFA, (21Z)-29-(oleoyloxy)nonacos-21-enoic acid], for which the “evaporation resistance of OAHFA films” value in data set [1] was “reasonable degree of evaporation resistance”.
Take `CCCCCCCC/C=C\CCCCCCCC(=O)OCCCCCCCCCCCC(=O)O` [12:0/18:1-OAHFA, 12-(oleoyloxy)dodecanoic acid]: the “evaporation resistance of OAHFA films” value in data set [1] is recorded as “significantly weaker evaporation-resistant properties”.
For the molecule `CCCCCCCC/C=C\CCCCCCCCOC(=O)CCCCCCCCCCCCCCCCC(=O)O` [R-18:0/18:1-OAHFA, 18-(oleyloxy)-18-oxo-octadecanoic acid], the “evaporation resistance of OAHFA films” value in data set [1] is listed as “reasonable degree of evaporation resistance”. Further, in data set [3], the “Onset Tm1 ± SD” value was determined as 55.00 ± 0.87, the “Onset Tm2 ± SD” value was found to be 63.20 ± 0.28, the “Peak Tm1 ± SD” value amounted to 57.53 ± 0.95 and the “Peak Tm2 ± SD” value turned out to be 63.88 ± 0.14.
As for `CCCCCCCCCCCCCCCCCC(=O)OC[C@H](COP(=O)(O)OC[C@H](N)C(=O)[O-])OC(=O)CCCCCCCCCCCCCCCCC.[Na+]` [18:0 PS, 1,2-distearoyl-sn-glycero-3-phospho-L-serine (sodium salt)], the “phase behaviour of the film” value in data set [2] is recorded as “suitable properties”.
As to `CCCCCCCCCCCCCCCCCC(=O)OC[C@H](COP(=O)([O-])OCC(O)CO)OC(=O)CCCCCCCCCCCCCCCCC.[Na+]` (mixture of isomers) [18:0 PG, 1,2-distearoyl-sn-glycero-3-phospho-rac-(1-glycerol) sodium salt], the “evaporation resistance of phospholipid films” value in data set [1] was “highest evaporation resistance”. The “phase behaviour of the film” value in data set [2] (sodium salt) is on record as “suitable properties; also recorded: phase transition occurring at a low surface pressure”.
Consider `CCCCCCCCCCCCCCCC(=O)OC[C@H](COP(=O)(O)OCCN)OC(=O)CCCCCCCCCCCCCCC` [16:0 PE, 1,2-dipalmitoyl-sn-glycero-3-phosphoethanolamine], for which the “phase behaviour of the film” value in data set [2] is “suitable properties”.
In the case of `CCCCCCCC/C=C\CCCCCCCC(=O)OCCCCCCCCCCCCCCCCCCCCCC(=O)O` [22:0/18:1-OAHFA, 22-(oleoyloxy)docosanoic acid], the “evaporation resistance of OAHFA films” value in data set [1] is recorded as “reasonable degree of evaporation resistance”.
Take `CCCCCCCC/C=C\CCCCCCCC(=O)OCCCCCCCCCCCCCCCCCC(=O)O` [18:0/18:1-OAHFA, 18-(oleoyloxy)octadecanoic acid]: the “evaporation resistance of OAHFA films” value in data set [1] was “displays evaporation resistance; also recorded: highest evaporation resistance”. In addition, in data set [3], the “Onset Tm1 ± SD” value is reported as 54.92 ± 0.87 and the “Peak Tm1 ± SD” value turned out to be 56.50 ± 0.64. Besides, in data set [2], the “phase behaviour of the film” value is given as “does undergo a liquid to solid phase transition” and the “surface activity / spreading ability” value was “surface active lipids”.
On to `CCCCCCCC/C=C\CCCCCCCC(=O)OCCCCCCCCCCCCCCCCCCCC(=O)O` [20:0/18:1-OAHFA, 20-(oleoyloxy)eicosanoic acid], for which the “evaporation resistance of OAHFA films” value in data set [1] is given as “reasonable degree of evaporation resistance”. In data set [3], the “Onset Tm1 ± SD” value was determined as 41.65 ± 1.16, the “Onset Tm2 ± SD” value is listed as 56.89 ± 1.42, the “Peak Tm1 ± SD” value came out at 46.54 ± 0.18 and the “Peak Tm2 ± SD” value came out at 59.52 ± 0.38.
Turning to `CCCCCCCCCCCCCCCCCCCC(=O)OC[C@H](COP(=O)([O-])OCC[N+](C)(C)C)OC(=O)CCCCCCCCCCCCCCCCCCC` [DAPC, 1,2-diarachidoyl-sn-glycero-3-phosphatidylcholine], in data set [3], the “Onset Tm1 ± SD” value is on record as 63.04 ± 0.21 and the “Peak Tm1 ± SD” value was found to be 64.87 ± 0.05.
With `CCCCCCCCCCCCCC(=O)OC[C@H](COP(=O)([O-])OCC[N+](C)(C)C)OC(=O)CCCCCCCCCCCCC` [DMPC, 1,2-dimyristoyl-sn-glycero-3-phosphocholine], in data set [3], the “Onset Tm1 ± SD” value came to 17.37 ± 0.69 and the “Peak Tm1 ± SD” value is 22.74 ± 1.57.
For `CCCCCCCC/C=C\CCCCCCCC(=O)OCCCCCCCCCCCCCCC(=O)O` [15:0/18:1-OAHFA, 15-(oleoyloxy)pentadecanoic acid], in data set [1], the “evaporation resistance of OAHFA films” value was “significantly weaker evaporation-resistant properties”.
